Test results taken from patent US10065990B2, “Cyclic peptide compound, and preparation method, pharmaceutical composition and use thereof” (HANGZHOU GUANYU BIO-MEDICAL CO., LTD, priority 2013, dated 2018).
Like-named read-outs stand apart in the source and are kept apart here.

Experiments:
HDAC1 = HDAC1 (Homo sapiens, UniProt Q13547); assay: HDAC biochemical activity measurement (fluorescent substrate deacetylation);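 note: fluorogenic acetyl-lysine substrate (20 µM) deacetylated by HDAC1, then developer releases fluorophore read at 360 nm excitation and 460 nm emission, inhibitor incubated 30 min at 37 °C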
Sequence of HDAC1 (Q13547 whole entry, species assumed): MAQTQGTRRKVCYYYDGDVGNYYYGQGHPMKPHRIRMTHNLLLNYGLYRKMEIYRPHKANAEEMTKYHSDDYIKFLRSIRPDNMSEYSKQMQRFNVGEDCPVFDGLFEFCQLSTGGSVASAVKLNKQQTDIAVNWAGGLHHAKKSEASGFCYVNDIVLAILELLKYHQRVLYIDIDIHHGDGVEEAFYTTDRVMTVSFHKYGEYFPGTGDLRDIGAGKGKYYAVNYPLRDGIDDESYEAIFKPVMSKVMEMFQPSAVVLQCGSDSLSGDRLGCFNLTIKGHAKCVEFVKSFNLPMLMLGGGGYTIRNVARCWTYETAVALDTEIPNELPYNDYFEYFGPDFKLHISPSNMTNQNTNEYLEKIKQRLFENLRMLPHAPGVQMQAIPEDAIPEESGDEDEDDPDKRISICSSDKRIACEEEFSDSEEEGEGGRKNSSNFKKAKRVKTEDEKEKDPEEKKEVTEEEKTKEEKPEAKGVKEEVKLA

[1] = test system: N-87 (human gastric cancer cells); assay: MTT cancer cell growth inhibition; format: cell-based; settings: Homo sapiens, 72 h, MTT, 72 hours incubation, N-87 cells; read-out: GI50 N-87
Procedure, shortened: (§1)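 Growth inhibition is scored with MTT after three days of compound treatment spanning 10^−5–10^−10 M. Cells are maintained in DMEM or 1640 medium containing 10% FBS and plated at 1500 per well the previous night; absorbance at 570 nm gives viability, from which GI50 is calculated.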

[2] = test system: KBM5-T315I (human chronic myelogenous leukemia); assay: MTT cancer cell growth inhibition; format: cell-based; settings: Homo sapiens, 72 h, MTT, 72 hours incubation, KBM5-T315I cells; read-out: GI50 KBM5-T315I
Procedure, shortened: as §1

[3] = test system: Bel-7402 (human hepatoma cells); assay: MTT cancer cell growth inhibition; format: cell-based; settings: Homo sapiens, Bel-7402, 72 h, MTT, 72 hours incubation, Bel-7402 cells; read-out: GI50 Bel-7402
Procedure, shortened: as §1

[4] = test system: lncap (prostate cancer cells); assay: MTT cancer cell growth inhibition; format: cell-based; settings: Homo sapiens, LNCaP, 72 h, MTT, 72 hours incubation, read-out: GI50 lnca
Procedure, shortened: as §1

[5] = test system: Huh-7 (human hepatoma cells); assay: MTT cancer cell growth inhibition; format: cell-based; settings: Homo sapiens, Huh-7, 72 h, MTT, 72 hours incubation, Huh-7 cells; read-out: GI50 Huh-7
Procedure, shortened: as §1

[6] = test system: HT1080 (human fibrosarcoma cells); assay: MTT cancer cell growth inhibition; format: cell-based; settings: Homo sapiens, HT-1080, 72 h, MTT, 72 hours incubation, read-out: GI50 HT1
Procedure, shortened: as §1

[7] = test system: MDA-MB-231 (breast cancer cells); assay: MTT cancer cell growth inhibition; format: cell-based; settings: Homo sapiens, MDA-MB-231, 72 h, read-out: GI50 MDA-MB-231, MTT, 72 hours incubation, MDA-MB-231 cells
Procedure, shortened: as §1

[8] = test system: PANC-1 (Pac-1, human pancreatic cancer cells); assay: MTT cancer cell growth inhibition; format: cell-based; settings: Homo sapiens, PANC-1, 72 h, MTT, 72 hours incubation, read-out: GI50 PAN
Procedure, shortened: as §1

[9] = test system: HCC827 (human non-small cell lung cancer cells); assay: MTT cancer cell growth inhibition; format: cell-based; settings: Homo sapiens, HCC827, 72 h, MTT, 72 hours incubation, HCC827 cells; read-out: GI50 HCC827
Procedure, shortened: as §1

[10] = test system: MCF-7 (human breast cancer cells); assay: MTT cancer cell growth inhibition; format: cell-based; settings: Homo sapiens, MCF7, 72 h, 72 hours incubation, read-out: GI50 MCF
Procedure, shortened: as §1

[11] = test system: DU145 (human prostate cancer cells); assay: MTT cancer cell growth inhibition; format: cell-based; settings: Homo sapiens, DU-145, 72 h, MTT, 72 hours incubation, read-out: GI50 Du1
Procedure, shortened: as §1

[12] = test system: U937 (human leukemia cells); assay: MTT cancer cell growth inhibition; format: cell-based; settings: Homo sapiens, U-937, 72 h, MTT, 72 hours incubation, read-out: GI50 U93
Procedure, shortened: as §1

[13] = test system: Hela (human cervical cancer cells); assay: MTT cancer cell growth inhibition; format: cell-based; settings: Homo sapiens, HeLa, 72 h, MTT, 72 hours incubation, read-out: GI50 Hela
Procedure, shortened: as §1

[14] = test system: MOLT-4 (human acute lymphoblastic leukemia cells); assay: MTT cancer cell growth inhibition; format: cell-based; settings: Homo sapiens, MOLT-4, 72 h, MTT, 72 hours incubation, read-out: GI50 Mol
Procedure, shortened: as §1

[15] = test system: K562 (human leukemia cells); assay: MTT cancer cell growth inhibition; format: cell-based; settings: Homo sapiens, K562, 72 h, MTT, 72 hours incubation, K562 cells; read-out: GI50 K562
Procedure, shortened: as §1

[16] = test system: SGC-7901 (human gastric cancer cells); assay: MTT cancer cell growth inhibition; format: cell-based; settings: Homo sapiens, SGC-7901, 72 h, MTT, 72 hours incubation, SGC-7901 cells; read-out: GI50 SGC-7901
Procedure, shortened: as §1

[17] = test system: KBM-5 (human chronic myelogenous leukemia); assay: MTT cancer cell growth inhibition; format: cell-based; settings: Homo sapiens, KBM5, 72 h, MTT, 72 hours incubation, KBM-5 cells; read-out: GI50 KBM-5
Procedure, shortened: as §1

[18] = test system: A549 (human lung cancer cells); assay: MTT cancer cell growth inhibition; format: cell-based; settings: Homo sapiens, A549, 72 h, MTT, 72 hours incubation, read-out: GI50 A54
Procedure, shortened: as §1

HDAC11 = molecular target: T1, HDAC11 (Homo sapiens, UniProt Q96DB2); assay: HDAC biochemical activity measurement (fluorescent substrate deacetylation);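 note: HDAC11 enzyme acting on an acetyl-lysine fluorogenic substrate, then a developer frees the fluorophore, read at excitation 360 nm and emission 460 nm, IC50 over a compound dilution series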
T1 sequence (Q96DB2 1-347): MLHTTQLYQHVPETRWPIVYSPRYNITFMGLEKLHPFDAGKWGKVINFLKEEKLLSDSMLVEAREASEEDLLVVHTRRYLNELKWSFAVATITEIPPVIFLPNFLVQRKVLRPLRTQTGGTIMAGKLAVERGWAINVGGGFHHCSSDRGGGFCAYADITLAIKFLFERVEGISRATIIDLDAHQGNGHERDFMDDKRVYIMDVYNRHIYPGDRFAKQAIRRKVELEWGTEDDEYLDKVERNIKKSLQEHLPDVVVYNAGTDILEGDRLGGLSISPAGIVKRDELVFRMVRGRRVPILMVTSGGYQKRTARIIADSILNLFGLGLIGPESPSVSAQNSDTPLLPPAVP
Experimental: The chemical activity of the compound is determined according to the degree of deacetylation inhibition of the HDAC enzyme. This experiment measured the degree of deacetylation related to tumor proliferation and metastasis of HDAC1, HDAC2, HDAC3, HDAC8, HDAC11 five subtypes HDAC enzymes. After the substrate containing an acetylated lysine side chain and HDAC enzyme are labeled with a fluorescent label, the fluorescent substrate is de acetyl. The fluorescent labeled substrate is cleaved by the enzyme, and the fluorescent substance is released, which generates 460 nm emission light under the excitation of 360 nm light.
HDAC substrate was diluted with reaction buffer to 200M (reaction concentration of 20M), the HDAC enzyme was diluted to the appropriate concentration, then added different concentrations of the test compounds and acted at 37° C. 30 minutes, and then added the same volume of 2-times concentration substrate developing solution (developer), incubated at room temperature for 15 minutes.

HDAC3 = HDAC3 (Homo sapiens, UniProt O15379); assay: as above;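 note: fluorogenic acetyl-lysine substrate (20 µM) deacetylated by HDAC3, then developer added for 15 min at room temperature, release of fluorophore read at excitation 360 nm, emission 460 nm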
Sequence of HDAC3 (O15379 whole entry, species assumed): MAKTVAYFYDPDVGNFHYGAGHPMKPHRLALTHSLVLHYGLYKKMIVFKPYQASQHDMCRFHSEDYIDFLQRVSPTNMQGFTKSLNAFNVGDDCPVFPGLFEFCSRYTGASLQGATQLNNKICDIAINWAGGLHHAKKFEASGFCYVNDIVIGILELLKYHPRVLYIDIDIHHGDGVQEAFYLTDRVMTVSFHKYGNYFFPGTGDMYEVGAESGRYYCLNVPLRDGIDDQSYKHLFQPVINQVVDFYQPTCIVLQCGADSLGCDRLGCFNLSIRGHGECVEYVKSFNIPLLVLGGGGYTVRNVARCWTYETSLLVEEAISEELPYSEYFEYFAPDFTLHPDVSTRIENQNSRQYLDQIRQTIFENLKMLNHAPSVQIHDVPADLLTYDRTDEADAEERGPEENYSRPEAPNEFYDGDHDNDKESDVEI
Sequence of HDAC3 (Q9Y618 395-489 partner limits assumed, species assumed): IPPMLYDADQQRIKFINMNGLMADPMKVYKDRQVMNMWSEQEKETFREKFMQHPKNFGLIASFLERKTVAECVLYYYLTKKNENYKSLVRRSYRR

[19] = HDAC1, 37° C. 30 minutes, read-out: IC50 HDAC1
[20] = Table 3, column C, read-out: IC50 HDAC1, C (six-membered ring with substituents)
[21] = read-out: IC50 HDAC11, HDAC11, 37° C. 30 minutes
[22] = read-out: IC50 HDAC3, HDAC3, 37° C. 30 minutes

| SMILES | IC50 (HDAC1; [19]) [nM] | IC50 (HDAC1; [20]) [nM] | GI50 [1] [nM] | GI50 [2] [nM] | GI50 [3] [nM] | GI50 [4] [nM] | GI50 [5] [nM] | GI50 [6] [nM] | GI50 [7] [nM] | GI50 [8] [nM] | GI50 [9] [nM] | GI50 [10] [nM] | GI50 [11] [nM] | GI50 [12] [nM] | GI50 [13] [nM] | GI50 [14] [nM] | GI50 [15] [nM] | GI50 [16] [nM] | GI50 [17] [nM] | GI50 [18] [nM] | further results |
| --- | --- | --- | --- | --- | --- | --- | --- | --- | --- | --- | --- | --- | --- | --- | --- | --- | --- | --- | --- | --- | --- |
| C/C=C1\NC(=O)c2nc(ccc2F)CNC(=O)C[C@@H](/C=C/CCSC(C)=O)OC(=O)[C@H](Cc2cccc3ccccc23)NC1=O [Compound 78] | 63 | 63 | 61 | 19 | 72 | 20 | 29 | 70 | 29 | 70 | 72 | 10 | 40 | 60 | 60 | 20 | 46 | 62 | 61 | 60 | IC50 (HDAC11; [21]): 94 nM; IC50 (HDAC3; [22]): 38 nM |
| CC(=O)SCC/C=C/[C@@H]1CC(=O)NCc2cc(F)cc(n2)C(=O)NC(=C(C)C)C(=O)N[C@@H](C(C)C)C(=O)O1 [Compound 88] | 31 | 31 | 31 | 24 | 67 | 30 | 38 | 60 | 38 | 60 | 67 | 20 | 30 | 50 | 70 | 30 | 34 | 29 | 71 | 20 | IC50 (HDAC11; [21]): 94 nM; IC50 (HDAC3; [22]): 41 nM |
| C/C=C1\NC(=O)c2ccc(SC)c(n2)CNC(=O)C[C@@H](/C=C/CCSC(=O)CCCCCCC)OC(=O)[C@H](CC)NC1=O [Compound 173] |  |  | 83 | 12 | 22 |  | 71 |  | 48 |  | 27 |  |  |  |  |  | 53 | 23 | 13 |  | GI50 ([4]; lncap cells): 40 nM; GI50 ([6]; HT1080 cells): 70 nM; GI50 ([8]; PANC-1 cells): 40 nM; GI50 ([10]; MCF-7 cells): 20 nM; GI50 ([11]; DU145 cells): 60 nM; GI50 ([12]; U937 cells): 10 nM; GI50 ([13]; Hela cells): 60 nM; GI50 ([14]; MOLT-4 cells): 30 nM; GI50 ([18]; A549 cells): 60 nM; IC50 (HDAC11): 97 nM; IC50 (HDAC3): 37 nM |
| C/C=C1\NC(=O)c2cc(F)cc(n2)CNC(=O)C[C@@H](/C=C/CCSC(C)=O)OC(=O)[C@H](Cc2ccc(O)cc2)NC1=O [Example 82] | 94 |  | 26 | 38 | 81 | 20 | 29 | 80 | 29 | 80 | 81 | 30 | 30 | 50 | 40 | 20 | 36 | 48 | 49 | 40 | IC50 (HDAC11): 92 nM; IC50 (HDAC3): 53 nM |
